Test results: patent EP0022634A1, “Acylated indole derivatives, processes for their preparation and pharmaceutical compositions and drugs comprising them” (TEIJIN LIMITED, priority 1979, dated 1981)
≈ marks a conversion by molar mass, not a printed value.

Tests used:
platelet aggregation [1] = test: extra vivo platelet aggregation inhibiting activity after oral administration, sodium arachidonate as aggregating agent; type: in vivo, guinea pigs; conditions: Cavia porcellus, 0.03 mM sodium arachidonate; for inhibition at 10 mg/kg: oral dosage 10 mg/kg; for inhibition at 1 mg/kg: oral dosage 1 mg/kg
Description: (§1) The platelet aggregation inhibiting activities extra vivo of drugs sampled at random were examined using guinea pigs.
(§2) The drugs were used dissolved in propylene glycol to a concentration of 1 mg/ml (when the dosage was 1 mg/kg), 10 mg/ml (when the dosage was 10 mg/kg), and 30 mg/ml (when the dosage was 30 mg/kg). The drugs were administered orally to male Hartley guinea pigs (three in a group) having a body weight of 300 to 350 g. Propylene glycol was administered to a control group.
(§3) One hour, or 4 hours after the administration, citrated blood was taken out from the subject by cardiac puncture.
(§4) The guinea pigs were caused to fast overnight before use.
(§5) The inhibiting rate of the test drugs was measured as follows: • 450 µℓ of PRP was put into a cuvette of an aggregometer, and then 50 µℓ of the aggregating agent was added. The aggregation curve was recorded for 3 minutes, and the maximum degree of aggregation was measured. As a blank, the maximum degree of aggregation of PRP of the group of guinea pigs to which propylene glycol had been administered was measured. The rate of inhibition was calculated from the following equation. [formula]
(§6) As the aggregating agent, 0.03 mM (final concentration sodium arachidonate and 5 µg/ml (final concentration) collagen floating solution were used.
For details of the extra vivo platelet aggregation inhibiting test, see Davis. H. M., Phyllis, J., Paul, K and Terry, W.: Thromb. […] Haemos.

platelet aggregation [2] = test: in vitro platelet aggregation inhibiting activity (sodium arachidonate as aggregating agent); type: cell-based; conditions: Cavia porcellus, Platelet, guinea pigs PRP, final concentration 0.1 millimole, minimum final concentration whose inhibiting rate exceeded 50 %, read-out: IC50
Description: The platelet aggregation inhibiting activities in vitro of test drugs including the acylated indole derivatives of this invention were assayed using guinea pigs PRP.
As an aggregating agent, sodium arachidonate having a final concentration of 0.1 millimole was used.
The citrated blood was centrifuged at 1000 rpm for 10 minutes at room temperature, and the supernatant liquid (PRP) was separated.
The resulting PRP was stored at room temperature, and used as early as possible. PRP stored for more than 4 hours was not used.
A compound having a free carboxylic acid as a residue, such as Indomethacin and Ibprofen, was dissolved in O.lM NaHC03 to provide a sodium salt solution having a concentration of 10 mg/ml. The solution was similarly diluted with physiological saline to prepare a solution of a test drug.
The solution was diluted with physiological saline to form a 1mM solution which was used in the test.
50 µℓ of physiological saline and 50 µℓ of the aggregating agent solution were added to 400 µℓ of PRP which had been warmed in a cuvette at 37°C in an aggregometer to aggregate the platelet. The aggregation curve was recorded for 3 minutes by an aggregometer (a product of Bryston Company). The maximum degree of aggregation in this platelet aggregation was defined as the maximum degree of aggregation in the blank.
Then, 50 µℓ of a 1mM solution of sodium arachidonate was added, and the platelet aggregation curve was recorded in the same way as in (1) above. From the curve, the maximum degree of aggregation was calculated, and the inhibiting rate was calculated in accordance with the following equation. Maximum degree of aggregation Inhibiting 100 - in the Ibprofen-added system 100 rate (%) Maximum degree of aggregation in the blank
If these inhibiting rates are not attained, the concentration of the solution of sodium arachidonate is not suitable, and therefore, its concentration should be re-adjusted, and the test shall be performed again.
50 µℓ of the test compound solution was added to 400 µℓ of PRP, and the mixture was pre-incubated in the same way as in(2) above. Then, 50 µℓ of the solution of sodium arachidonate having its concentration adjusted in (2) was added, and the aggregation curve was recorded for 3 minutes. The maximum degree of aggregation of platelet within this period was measured, and the rate of inhibition was calculated from the following equation. […] Maximum degree of aggregation Inhibiting _ 100 - in the drug-added system x 100 rate (%) Maximum degree of aggregation in the blank
For details of the in vitro platelet aggregation inhibiting test, see H. M. Davis, J. Phyllis, K. Paul and W. Terry: Thromb. […] Haemos.

platelet aggregation [3] = test: extra vivo platelet aggregation inhibiting activity after oral administration, collagen as aggregating agent; type: in vivo, guinea pigs; conditions: Cavia porcellus, po
Description: The collagent floating solution made by Hormone Company of west Germany was diluted with physiological saline to a concentration of 100 µg/ml for use in the test.
as §1, §2, §3, §4, §5, §6
For details of the extra vivo platelet aggregation inhibiting test, see Davis. H. M., Phyllis, J., Paul, K and Terry, W.: Thromb. Res. 11, 217-226 (1977) and Anderson R. E. and Foulks J. G.: Thromb. Haemos. 36, 343-359 (1976).

[4] = test system: mucous membrane of the stomach; test: Action of causing trouble to the mucous membrane of the stomach (ulcer index); type: in vivo, Male S.D. rats; conditions: fasted rats
Description: Male S.D. rats (7 weeks old) were caused to fact for 24 hours while allowing them to drink water freely. A test compound dissolved in propylene glycol was orally administered to these rats, and these rats were kept while causing them to fast. Then, the rats were knocked out to death, and lesions generated in the stomach were measured in the following manner.
Ten minutes before killing the rats, 1% Evans blue was intravenously injected to the rats in a dose of 0.5 ml/rat to stain their body. Then, the rats were knocked out to death, and the stomack was taken out from each rat. 12 ml of 1% formalin was injected into the stomack to inflate it. The stomach was then dipped for more than 10 minutes in a 1% formalin solution, and fixed. After fixing, the stomach was incised along the glandular portion, and the length of a dye-leaked portion that occurred in the stomach was measured under a solid microscope, and defined as the ulcer index (mm).
For details of the test on the action of causing trouble to the mucous membrane of the stomach, see E. Adami, E. Marazzi-Uberti, and C. Turba, Arch, int. Pharmacadyn., 147, 113 (1964).

[5] = blood taken 1 hour after administration, read-out: Rate of inhibition of platelet aggregation, Sodium arachidonate, After 1 hour
[6] = blood taken 4 hours after administration, read-out: Rate of inhibition of platelet aggregation, Sodium arachidonate, After 4 hours
[7] = 1 h, read-out: Rate of inhibition of platelet aggregation, Collagen, After 1 hour
[8] = 4 h, read-out: Rate of inhibition of platelet aggregation, Collagen, After 4 hours
[9] = oral dosage 100 mg/kg in propylene glycol
[10] = oral dosage 200 mg/kg in propylene glycol
[11] = oral dosage 400 mg/kg in propylene glycol

SMILES | inhibition at 10 mg/kg (platelet aggregation [1]; [5]) | inhibition at 10 mg/kg (platelet aggregation [1]; [6]) | IC50 (platelet aggregation [2]) | inhibition at 10 mg/kg (platelet aggregation [3]; [7]) | inhibition at 10 mg/kg (platelet aggregation [3]; [8]) | other results
COc1ccc2c(c1)c(C(=O)c1ccccc1)c(C)n2C(C)CO (stereo not shown) [(116), 3-benzoyl-1-(1-hydroxy-2-propyl)-5-methoxy-2-methylindole] | 100% | 0.7% | 0.5 µg/mL (≈ 1.55 µM) | 100% | 0% | –
Cc1c(C(=O)c2ccccc2)c2cc(O)ccc2n1C(C)CO (stereo not shown) [(117), 3-Benzoyl-5-hydroxy-1-(1-hydroxy-2-propyl)-2-methylindole] | 100% | 8.6% | 0.25 µg/mL (≈ 0.808 µM) | 72.1% | 2.2% | –
CC(=O)OCCC(C)n1c(C)c(C(=O)c2ccccc2)c2ccccc21 (stereo not shown) [(201), 1-(4-acetoxy-2-butyl)-3-benzoyl-2-methylindole] | 100% | 100% | 0.075 µg/mL (≈ 0.215 µM) | 100% | 100% | –
CCC(COC(C)=O)n1c(C)c(C(=O)c2ccccc2)c2ccccc21 (stereo not shown) [(205), 1-(1-acetoxy-2-butyl)-3-benzoyl-2-methylindole] | 100% | 85.3% | 0.1 µg/mL (≈ 0.286 µM) | 100% | 93.8% | –
COCC(C)n1c(C)c(C(=O)c2ccccc2)c2ccccc21 (stereo not shown) [(300), 3-Benzoyl-1-(1-methoxy-2-propyl)-2-methylindole] | – | – | 0.055 µg/mL (≈ 0.179 µM) | – | – | inhibition at 1 mg/kg (platelet aggregation [1]; [5]): 51.3%; inhibition at 1 mg/kg (platelet aggregation [1]; [6]): 67.5%; inhibition at 1 mg/kg (platelet aggregation [3]; [7]): 100%; inhibition at 1 mg/kg (platelet aggregation [3]; [8]): 71.4%; Incidence [4, 9]: 40%; Ulcer Index (mm ± S.E.) [4, 9]: 1.1 ± 0.5 mm; Incidence [4, 10]: 55.6%; Ulcer Index (mm ± S.E.) [4, 10]: 1.2 ± 0.3 mm; Incidence [4, 11]: 66.7%; Ulcer Index (mm ± S.E.) [4, 11]: 1.4 ± 0.5 mm
CCOCC(C)n1c(C)c(C(=O)c2ccccc2)c2ccccc21 (stereo not shown) [(302), 3-Benzoyl-1-(1-ethoxy-2-propyl)-2-methylindole] | 100% | 100% | 0.055 µg/mL (≈ 0.171 µM) | – | – | Incidence [4, 10]: 33.3%; Ulcer Index (mm ± S.E.) [4, 10]: 0.3 ± 0.2 mm; Incidence [4, 11]: 50%; Ulcer Index (mm ± S.E.) [4, 11]: 0.9 ± 0.3 mm
COCCC(C)n1c(C)c(C(=O)c2ccccc2)c2ccccc21 (stereo not shown) [(306), 3-Benzoyl-1-(4-methoxy-2-butyl)-2-methylindole] | 100% | 100% | 0.25 µg/mL (≈ 0.778 µM) | 100% | 100% | –
CCOCCC(C)n1c(C)c(C(=O)c2ccccc2)c2ccccc21 (stereo not shown) [(307), 3-Benzoyl-1-(4-ethoxy-2-butyl)-2-methylindole] | 100% | 100% | 0.25 µg/mL (≈ 0.745 µM) | 98.3% | 100% | –
CCC(COC)n1c(C)c(C(=O)c2ccccc2)c2ccccc21 (stereo not shown) [(311), 3-Benzoyl-1-(1-methoxy-2-butyl)-2-methylindole] | 68.8% | 100% | 0.25 µg/mL (≈ 0.778 µM) | 100% | 81.1% | –
CCOCC(CC)n1c(C)c(C(=O)c2ccccc2)c2ccccc21 (stereo not shown) [(312), 3-Benzoyl-1-(1-ethoxy-2-butyl)-2-methylindole] | 100% | 100% | 0.25 µg/mL (≈ 0.745 µM) | 100% | 100% | –
COCC(C)n1c(C)c(C(=O)c2ccccc2)c2cc(OC)ccc21 (stereo not shown) [(318), 3-Benzoyl-5-methoxy-1-(1-methoxy-2-propyl)-2-methylindole] | 100% | 14% | 0.75 µg/mL (≈ 2.22 µM) | 97.7% | 0.5% | –
CCSCC(C)n1c(C)c(C(=O)c2ccccc2)c2ccccc21 (stereo not shown) [(400), 3-Benzoyl-1-(1-ethylthio-2-propyl)-2-methylindole] | 100% | 67.4% | 0.5 µg/mL (≈ 1.48 µM) | 100% | 100% | –
Cc1c(C(=O)c2ccccc2)c2ccccc2n1C(C)CSc1ccccc1 (stereo not shown) [(401), 3-Benzoyl-2-methyl-1-(1-phenylthio-2-propyl)-indole] | 100% | 100% | 0.25 µg/mL (≈ 0.648 µM) | 100% | 100% | –
Cc1c(C(=O)c2ccccc2)c2ccccc2n1C(C)CSc1ccccn1 (stereo not shown) [(405), 3-Benzoyl-2 methyl-1-[1-(2-pyridylthio)-2-propyl]indole] | 100% | 100% | 0.5 µg/mL (≈ 1.29 µM) | 100% | 100% | –
CCSCCC(C)n1c(C)c(C(=O)c2ccccc2)c2ccccc21 (stereo not shown) [(409), 3-Benzoyl-1-(4-ethylthio-2-butyl)-2-methylindole] | 100% | 48.8% | 0.25 µg/mL (≈ 0.711 µM) | 100% | 100% | –
CCCCC(C)n1c(C)c(C(=O)c2ccccc2)c2ccccc21 (stereo not shown) [(705), 3-Benzoyl-1-(2-hexyl)-2-methylindole] | – | – | – | – | – | Incidence [4, 11]: 0%; Ulcer Index (mm ± S.E.) [4, 11]: 0 mm
CCCCCC(C)n1c(C)c(C(=O)c2ccccc2)c2ccccc21 (stereo not drawn) [(706), 3-Benzoyl-l-(2-heptyl)-2-methylindole] | – | – | – | – | – | Incidence [4, 11]: 16.7%; Ulcer Index (mm ± S.E.) [4, 11]: 0.1 mm
CC(=O)C(C)n1c(C)c(C(=O)c2ccccc2)c2ccccc21 (stereo not drawn) [(800), 3-Benzoyl-2-methyl-l-(3-oxo-2-butyl)indole] | 100% | 66.7% | 0.05 to 0.1 µg/mL (≈ 0.164 to 0.327 µM) | 100% | 48.4% | –
CC(C)c1[nH]c2ccccc2c1C(=O)c1cccnc1 [Comparison 3, reference compound] | – | – | 0.075 µg/mL (≈ 0.284 µM) | – | – | Incidence [4, 9]: 66.7%; Ulcer Index (mm ± S.E.) [4, 9]: 1.5 ± 0.6 mm; Incidence [4, 11]: 100%; Ulcer Index (mm ± S.E.) [4, 11]: 7.9 ± 2.3 mm
